Laboratory results taken from ChEMBL document CHEMBL1177663, “Synthesis and anti-HIV activity of 2-naphthyl substituted DAPY analogues as non-nucleoside reverse transcriptase inhibitors” (Bioorg Med Chem, 2010).

Assays:
[1] = Selectivity index, ratio of CC50 for human MT4 cells to EC50 for wild type HIV1 3B; assay type: toxicity, cell-based; conditions: read-out: Ratio CC50/EC50
[2] = Cytotoxicity against human MT4 cells after 4 days by MTT assay; assay type: cell-based
[3] = tested on: Human immunodeficiency virus 1; assay: Antiviral activity against HIV1 bearing reverse transcriptase K103N and Y181C double mutation infected in human MT4 cells assessed as inhibition of virus-induced cytopathic effect after 4 days by MTT assay; assay type: functional, organism-based; conditions: Human immunodeficiency virus 1, MT4, 96 h
[4] = tested on: Human immunodeficiency virus 1; assay: Antiviral activity against wild type HIV1 3B infected in human MT4 cells assessed as inhibition of virus-induced cytopathic effect after 4 days by MTT assay; assay type: functional, organism-based; conditions: Human immunodeficiency virus 1, 3B, MT4, 96 h
[5] = molecular target: Human immunodeficiency virus type 1 reverse transcriptase (Human immunodeficiency virus 1, UniProt Q72547); assay: Inhibition of HIV1 reverse transcriptase

Structure (SMILES) | selectivity ratio [1] | CC50 at 96 h [2] | EC50 [3] | EC50 [4] | IC50 [5]
Cc1cc(Oc2ccc3cc(C#N)ccc3c2Br)nc(Nc2ccc(C#N)cc2)n1 | > 40100 | > 274000 nM | 220 nM | 7 nM | 
Cc1cc(Oc2ccc3cc(C#N)ccc3c2)nc(Nc2ccc(C#N)cc2)n1 | > 96500 | > 332000 nM | 332000 nM | 3 nM | 
N#Cc1ccc(Nc2nccc(Oc3ccc4cc(C#N)ccc4c3)n2)cc1 | 20500 | > 68800 nM | 6300 nM | 3 nM | 8720 nM
N#Cc1ccc(Nc2nccc(Oc3ccc4cc(C#N)ccc4c3Br)n2)cc1 | 181000 | 283000 nM | 240 nM | 2 nM | 3010 nM
Cc1cnc(Nc2ccc(C#N)cc2)nc1Oc1ccc2cc(C#N)ccc2c1 | > 44900 | > 332000 nM | 332000 nM | 7 nM | 
N#Cc1ccc(Nc2nccc(Oc3cc4ccc(C#N)cc4cc3Br)n2)cc1 | 50400 | > 56500 nM | > 56500 nM | 1 nM | 1130 nM
COc1c(Oc2ccnc(Nc3ccc(C#N)cc3)n2)ccc2cc(C#N)ccc12 | ≥ 134000 | > 211000 nM | 380 nM | 2 nM | 2290 nM
COc1cc2cc(C#N)ccc2cc1Oc1ccnc(Nc2ccc(C#N)cc2)n1 | > 158000 | > 318000 nM | 319000 nM | 2 nM | 1320 nM
COc1cc2cc(C#N)ccc2c(OC)c1Oc1ccnc(Nc2ccc(C#N)cc2)n1 | ≥ 25000 | > 118000 nM | 160 nM | 5 nM | 94.5 nM
N#Cc1ccc(Nc2nccc(Oc3ccc4cc(C#N)ccc4c3Cl)n2)cc1 | 48000 | 269000 nM | 700 nM | 6 nM | 
COc1cc2cc(C#N)ccc2c(Cl)c1Oc1ccnc(Nc2ccc(C#N)cc2)n1 | ≥ 25700 | > 191000 nM | 150 nM | 7 nM | 
Cc1cnc(Nc2ccc(C#N)cc2)nc1Oc1ccc2cc(C#N)ccc2c1Br | > 23800 | > 274000 nM | 830 nM | 12 nM | 
CC(C)Nc1cccnc1N1CCN(C(=O)c2cc3cc(NS(C)(=O)=O)ccc3[nH]2)CC1 [DELAVIRDINE] |  | > 3620 nM | > 3620 nM |  | 
O=C1Nc2ccc(Cl)cc2[C@@](C#CC2CC2)(C(F)(F)F)O1 [EFAVIRENZ] |  | > 63400 nM | 560 nM |  | 
Cc1ccnc2c1NC(=O)c1cccnc1N2C1CC1 [NEVIRAPINE] |  | > 15000 nM | > 15000 nM | 75 nM | 
